This experiment has as its system 2G12. As to the kind of experiment: Binding curve and KD determination of 2G12-glycopeptide interaction (radiolabeled glycopeptide, protein G magnetic bead capture, scintillation counting). The procedure, abridged:
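Radiolabeled glycopeptide (<4 pmol) from PURE-system translation with click glycosylation was incubated with 100 nM 2G12 at room temperature. Complexes were captured on protein G beads and eluted at 70° C. Bound and unbound fractions were counted by scintillation, run at least in triplicate, and KD derived from binding curves.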

[1] abbreviates: Table 4, maximal fraction bound from curve fit, error = standard error of fit.
Setting [2] is: Table 4, ribosomally translated radiolabeled glycopeptide with His6/FLAG tag, room temperature, fit Fbound=(Fmax[2G12])/(KD+[2G12]), error = standard error of fit.

*1 amine or outer side, *2 acyl side, *3 side chain or, on linkers, in order; H or OH if unused. [ ]: non-standard residue; d: D form. The star is where a group is joined. X1 = O=C([C@H](CCc1cn(C2CCC(OC3O[C@H](CO[C@H]4O[C@H](CO[C@H]5O[C@H](CO)[C@@H](O)[C@H](O)[C@@H]5O[C@H]5O[C@H](CO)[C@@H](O)[C@H](O)[C@@H]5O)[C@@H](O)[C@H](O[C@H]5O[C@H](CO)[C@@H](O)[C@H](O)[C@@H]5O[C@H]5O[C@H](CO)[C@@H](O)[C@H](O)[C@@H]5O)[C@@H]4O)[C@@H](O)[C@H](O[C@H]4O[C@H](CO)[C@@H](O)[C@H](O)[C@@H]4O[C@H]4O[C@H](CO)[C@@H](O)[C@H](O)[C@@H]4O[C@H]4O[C@H](CO)[C@@H](O)[C@H](O)[C@@H]4O)[C@@H]3O)CC2)nn1)N[*:1])[*:2]; For = O=C*

Usually Kd stands for a measure of binding affinity in units of concentration. For the molecule `CC[C@H](C)[C@H](NC(=O)[C@H](CCC(=O)O)NC(=O)CNC(=O)[C@H](Cc1c[nH]c2ccccc12)NC(=O)[C@@H](NC(=O)[C@@H](NC(=O)[C@@H]1CCCN1C(=O)[C@H](CCc1cn(C2CCC(OC3O[C@H](CO[C@H]4O[C@H](CO[C@H]5O[C@H](CO)[C@@H](O)[C@H](O)[C@@H]5O[C@H]5O[C@H](CO)[C@@H](O)[C@H](O)[C@@H]5O)[C@@H](O)[C@H](O[C@H]5O[C@H](CO)[C@@H](O)[C@H](O)[C@@H]5O[C@H]5O[C@H](CO)[C@@H](O)[C@H](O)[C@@H]5O)[C@@H]4O)[C@@H](O)[C@H](O[C@H]4O[C@H](CO)[C@@H](O)[C@H](O)[C@@H]4O[C@H]4O[C@H](CO)[C@@H](O)[C@H](O)[C@@H]4O[C@H]4O[C@H](CO)[C@@H](O)[C@H](O)[C@@H]4O)[C@@H]3O)CC2)nn1)NC(=O)[C@H](CC(C)C)NC(=O)[C@H](Cc1ccc(O)cc1)NC(=O)[C@@H](NC(=O)[C@H](Cc1ccc(O)cc1)NC(=O)[C@@H](NC(=O)[C@@H]1CCCN1C(=O)[C@@H](NC(=O)[C@H](CO)NC(=O)[C@H](CC(C)C)NC(=O)[C@H](CCc1cn(C2CCC(OC3O[C@H](CO[C@H]4O[C@H](CO[C@H]5O[C@H](CO)[C@@H](O)[C@H](O)[C@@H]5O[C@H]5O[C@H](CO)[C@@H](O)[C@H](O)[C@@H]5O)[C@@H](O)[C@H](O[C@H]5O[C@H](CO)[C@@H](O)[C@H](O)[C@@H]5O[C@H]5O[C@H](CO)[C@@H](O)[C@H](O)[C@@H]5O)[C@@H]4O)[C@@H](O)[C@H](O[C@H]4O[C@H](CO)[C@@H](O)[C@H](O)[C@@H]4O[C@H]4O[C@H](CO)[C@@H](O)[C@H](O)[C@@H]4O[C@H]4O[C@H](CO)[C@@H](O)[C@H](O)[C@@H]4O)[C@@H]3O)CC2)nn1)NC(=O)[C@H](CCCNC(=N)N)NC(=O)[C@H](Cc1ccccc1)NC(=O)[C@@H]1CCCN1C(=O)[C@H](CC(N)=O)NC(=O)[C@@H](NC(=O)[C@H](CC(N)=O)NC(=O)[C@@H](NC(=O)[C@H](CO)NC(=O)[C@@H](NC(=O)[C@@H](NC(=O)[C@@H](NC(=O)[C@@H]1CCCN1C(=O)[C@H](CC(C)C)NC(=O)[C@@H](NC(=O)[C@H](CCc1cn(C2CCC(OC3O[C@H](CO[C@H]4O[C@H](CO[C@H]5O[C@H](CO)[C@@H](O)[C@H](O)[C@@H]5O[C@H]5O[C@H](CO)[C@@H](O)[C@H](O)[C@@H]5O)[C@@H](O)[C@H](O[C@H]5O[C@H](CO)[C@@H](O)[C@H](O)[C@@H]5O[C@H]5O[C@H](CO)[C@@H](O)[C@H](O)[C@@H]5O)[C@@H]4O)[C@@H](O)[C@H](O[C@H]4O[C@H](CO)[C@@H](O)[C@H](O)[C@@H]4O[C@H]4O[C@H](CO)[C@@H](O)[C@H](O)[C@@H]4O[C@H]4O[C@H](CO)[C@@H](O)[C@H](O)[C@@H]4O)[C@@H]3O)CC2)nn1)NC=O)C(C)C)[C@@H](C)O)[C@@H](C)CC)[C@@H](C)CC)[C@@H](C)O)C(C)C)[C@@H](C)CC)[C@@H](C)O)[C@@H](C)O)[C@@H](C)CC)[C@@H](C)O)C(=O)NCC(=O)N[C@@H](CO)C(=O)NCC(=O)N[C@@H](CO)C(=O)N[C@@H](CC(C)C)C(=O)NCC(=O)N[C@@H](Cc1c[nH]cn1)C(=O)N[C@@H](Cc1c[nH]cn1)C(=O)N[C@@H](Cc1c[nH]cn1)C(=O)N[C@@H](Cc1c[nH]cn1)C(=O)N[C@@H](Cc1c[nH]cn1)C(=O)N[C@@H](Cc1c[nH]cn1)C(=O)N[C@@H](CCCNC(=N)N)C(=O)N[C@@H](CC(=O)O)C(=O)N[C@@H](Cc1ccc(O)cc1)C(=O)N[C@@H](CCCCN)C(=O)N[C@@H](CC(=O)O)C(=O)N[C@@H](CC(=O)O)C(=O)N[C@@H](CC(=O)O)C(=O)N[C@@H](CC(=O)O)C(=O)N[C@@H](CCCCN)C(=O)O` (stereo partly shown) [Clone 10V8, XVLPTIISTNVNPFRXLSIPTYTYLXPITWGEI], the “Fmax [%]” value under setting [1] was found to be 94 ± 2.0%. Under setting [2], this molecule yielded a Kd of 4.6 ± 0.34 nM.
The like results for `CC[C@H](C)[C@H](NC(=O)[C@H](CO)NC(=O)[C@@H](NC(=O)[C@H](CCc1cn(C2CCC(OC3O[C@H](CO[C@H]4O[C@H](CO[C@H]5O[C@H](CO)[C@@H](O)[C@H](O)[C@@H]5O[C@H]5O[C@H](CO)[C@@H](O)[C@H](O)[C@@H]5O)[C@@H](O)[C@H](O[C@H]5O[C@H](CO)[C@@H](O)[C@H](O)[C@@H]5O[C@H]5O[C@H](CO)[C@@H](O)[C@H](O)[C@@H]5O)[C@@H]4O)[C@@H](O)[C@H](O[C@H]4O[C@H](CO)[C@@H](O)[C@H](O)[C@@H]4O[C@H]4O[C@H](CO)[C@@H](O)[C@H](O)[C@@H]4O[C@H]4O[C@H](CO)[C@@H](O)[C@H](O)[C@@H]4O)[C@@H]3O)CC2)nn1)NC=O)[C@@H](C)O)C(=O)N1CCC[C@H]1C(=O)N[C@@H](Cc1ccc(O)cc1)C(=O)N[C@H](C(=O)N[C@@H](Cc1ccc(O)cc1)C(=O)N[C@@H](CC(C)C)C(=O)N[C@@H](CC(N)=O)C(=O)N[C@@H](CCCNC(=N)N)C(=O)N[C@@H](CO)C(=O)N[C@@H](CC(C)C)C(=O)N[C@@H](Cc1c[nH]c2ccccc12)C(=O)N[C@H](C(=O)N[C@@H](CC(N)=O)C(=O)N[C@@H](Cc1ccc(O)cc1)C(=O)N[C@@H](CCCNC(=N)N)C(=O)N[C@H](C(=O)N[C@@H](CC(N)=O)C(=O)N[C@@H](CO)C(=O)N[C@@H](Cc1c[nH]c2ccccc12)C(=O)N[C@@H](CO)C(=O)N[C@@H](CCc1cn(C2CCC(OC3O[C@H](CO[C@H]4O[C@H](CO[C@H]5O[C@H](CO)[C@@H](O)[C@H](O)[C@@H]5O[C@H]5O[C@H](CO)[C@@H](O)[C@H](O)[C@@H]5O)[C@@H](O)[C@H](O[C@H]5O[C@H](CO)[C@@H](O)[C@H](O)[C@@H]5O[C@H]5O[C@H](CO)[C@@H](O)[C@H](O)[C@@H]5O)[C@@H]4O)[C@@H](O)[C@H](O[C@H]4O[C@H](CO)[C@@H](O)[C@H](O)[C@@H]4O[C@H]4O[C@H](CO)[C@@H](O)[C@H](O)[C@@H]4O[C@H]4O[C@H](CO)[C@@H](O)[C@H](O)[C@@H]4O)[C@@H]3O)CC2)nn1)C(=O)N[C@@H](CO)C(=O)N[C@@H](CCCCN)C(=O)N[C@@H](CC(N)=O)C(=O)N[C@H](C(=O)N[C@@H](CC(N)=O)C(=O)N[C@H](C(=O)N[C@@H](CCc1cn(C2CCC(OC3O[C@H](CO[C@H]4O[C@H](CO[C@H]5O[C@H](CO)[C@@H](O)[C@H](O)[C@@H]5O[C@H]5O[C@H](CO)[C@@H](O)[C@H](O)[C@@H]5O)[C@@H](O)[C@H](O[C@H]5O[C@H](CO)[C@@H](O)[C@H](O)[C@@H]5O[C@H]5O[C@H](CO)[C@@H](O)[C@H](O)[C@@H]5O)[C@@H]4O)[C@@H](O)[C@H](O[C@H]4O[C@H](CO)[C@@H](O)[C@H](O)[C@@H]4O[C@H]4O[C@H](CO)[C@@H](O)[C@H](O)[C@@H]4O[C@H]4O[C@H](CO)[C@@H](O)[C@H](O)[C@@H]4O)[C@@H]3O)CC2)nn1)C(=O)N1CCC[C@H]1C(=O)N[C@@H](CC(C)C)C(=O)NCC(=O)N[C@@H](CO)C(=O)NCC(=O)N[C@@H](CO)C(=O)N[C@@H](CC(C)C)C(=O)NCC(=O)N[C@@H](Cc1c[nH]cn1)C(=O)N[C@@H](Cc1c[nH]cn1)C(=O)N[C@@H](Cc1c[nH]cn1)C(=O)N[C@@H](Cc1c[nH]cn1)C(=O)N[C@@H](Cc1c[nH]cn1)C(=O)N[C@@H](Cc1c[nH]cn1)C(=O)N[C@@H](CCCNC(=N)N)C(=O)N[C@@H](CC(=O)O)C(=O)N[C@@H](Cc1ccc(O)cc1)C(=O)N[C@@H](CCCCN)C(=O)N[C@@H](CC(=O)O)C(=O)N[C@@H](CC(=O)O)C(=O)N[C@@H](CC(=O)O)C(=O)N[C@@H](CC(=O)O)C(=O)N[C@@H](CCCCN)C(=O)O)C(C)C)C(C)C)C(C)C)[C@@H](C)O)[C@@H](C)O` (stereo partly shown) [Clone 10V9, XTSIPYTYLNRSLWTNYRVNSWSXSKNVNVXPL] were, in that order, 85 ± 0.68% and 3.9 ± 0.11 nM.
Regarding “For-[X1]PNCITQQDVR[X1]TSIPYTYTWPGSGSLGHHHHHHRDYKDDDDK-OH [Clone 10F3-Δ11, XPNCITQQDVRXTSIPYTYTWP]”, the “Fmax [%]” value (Table 6 mutational analysis, radioactive bead binding assay) was found to be 32%. Also, for the setting “Table 6 mutational analysis, radioactive bead binding assay, ribosomally translated”, the Kd came out at 25 nM.
“XIRXRTPTSRLXSTXRGXTXNXTSXITPRNDXI [Clone 7V8]”: under setting [1], the “Fmax [%]” value came out at 108 ± 12%.

The record behind these values is US11345912B2, “Directed evolution of multivalent glycopeptides that tightly bind to target proteins” (Brandeis University, priority 2013, dated 2022).
